This note sets out measurements from ChEMBL document CHEMBL1777797, “Macrocyclic lactams as potent Hsp90 inhibitors with excellent tumor exposure and extended biomarker activity” (Bioorg Med Chem Lett, 2011).

The nature of data set [1]: Inhibition of HSP90 by fluorescence polarization assay. In general terms: Fluorescence polarisation rises when a labelled molecule tumbles more slowly, as on binding a larger partner.
The next data set deals with Heat shock protein HSP90 (Homo sapiens, UniProt P07900+P08238). Put plainly: Inhibition of HSP90 in human HCT-116 cells expressing V-Src-firefly luciferase fusion protein after 3 to 6 hrs. The data set is classed as cell-based.
The test system of another data set is HCT-116. Briefly: Antiproliferative activity against human HCT116 cells. The data set is classed as functional, cell-based.
Data set [2] is described as follows: Half life in rat liver microsomes. The data set is classed as ADME, Microsome.
Data set [3] is described as follows: Solubility of the compound. In kind it is physicochemical.
The next data set has as its system A-375. Put plainly: Antiproliferative activity against human A375 cells.
The subject of a further data set is BT-474. Briefly: Antiproliferative activity against human BT474 cells.
Data set [4] is described as follows: Antiproliferative activity against human WM266.4 cells. The settings on record: wm 266-4.
The subject of a further data set is A549. Put plainly: Antiproliferative activity against human A549 cells.
For a further data set, the system named is MDA-MB-361. Put plainly: Antiproliferative activity against human MDA-MB-361 cells.
Another data set relates to DU-145. Put plainly: Antiproliferative activity against human DU145 cells.
Another data set concerns T98G. Briefly: Antiproliferative activity against human T98G cells.
The nature of data set [5]: Antiproliferative activity against human U87MG cells. Conditions: u-87mg atcc.
The next data set concerns KB. Put plainly: Antiproliferative activity against human KB cells.
Data set [6] can be described thus: Antiproliferative activity against human KB 8.5 cells.
A short description of data set [7]: Antiproliferative activity against P-gp overexpressing human KBV1 cells. The settings on record: kb-v1.
Data set [8] in a line: Plasma concentration human MDA-MB-361 xenograft in vivo model at 50 mg/kg, po measured at 6 hrs post dose. The data set is classed as ADME, organism-based. Also noted: dose 50 mg/kg, route oral. On the technique in general: A xenograft is tissue or cells of one species grown in another, often human tumour cells in immunodeficient mice.
Data set [9] can be described thus: Drug level in tumor of human MDA-MB-361 xenograft in vivo model at 50 mg/kg, po measured at 6 hrs post dose. The data set is classed as ADME, organism-based, Neoplasm. Also noted: dose 50 mg/kg, route oral. Conditions: read-out: Drug uptake.
A short description of data set [10]: Plasma concentration in human MDA-MB-361 xenograft in vivo model at 50 mg/kg, po measured at 24 hrs post dose. The data set is classed as ADME, organism-based. Further details: dose 50 mg/kg, route oral.
Data set [11] is described as follows: Drug level in tumor of human MDA-MB-361 xenograft in vivo model at 50 mg/kg, po measured at 24 hrs post dose. The data set is classed as ADME, organism-based, Neoplasm. Conditions: read-out: Drug uptake. Further details: dose 50 mg/kg, route oral.
Another data set relates to NCI-H1975. Briefly: Antiproliferative activity against human NCI-H1975 cells.

In brackets after ≈: the same amount, converted by molar mass. Some results are limits rather than exact numbers.

For the molecule `CC(=O)NCCN1CC[C@H](C)Nc2cc(ccc2C(N)=O)-n2c(c(C)c3c2CC(C)(C)CC3=O)CC1=O`, the half-inhibitory concentration (IC50) in data set [1] is 407 nM; against Heat shock protein HSP90 it was greater than 5000 nM. The molecule further showed an EC50 in the data set on HCT-116 greater than 5000 nM. The half-life in data set [2] is greater than 30 min. In [3], the solubility was greater than 100 µg/mL.
For the molecule `Cc1c2c(n3c1CCN(C(=O)CN(C)C)CC[C@H](C)Nc1cc-3ccc1C(N)=O)CC(C)(C)CC2=O`, the IC50 in data set [1] is 140 nM; on Heat shock protein HSP90 it was 109 nM. Moreover, in the data set on HCT-116, a half-maximal effect (EC50) was put at 168 nM. In addition, the half-life in [2] stood at 3 min. The molecule also displayed a solubility in data set [3] greater than 100 µg/mL.
`Cc1c2c(n3c1CC(=O)NCCCNc1cc-3ccc1C(N)=O)CC(C)(C)CC2=O` registered an IC50 in data set [1] of 6830 nM.
As to `Cc1c2c(n3c1CCCN(CCN)C(=O)[C@H](C)Nc1cc-3ccc1C(N)=O)CC(C)(C)CC2=O`, the IC50 in data set [1] is 1180 nM; against Heat shock protein HSP90, greater than 20000 nM. The same molecule came in with an EC50 in the data set on HCT-116 greater than 20000 nM. For the same molecule, in data set [3], the solubility is greater than 100 µg/mL.
The molecule `Cc1c2c(n3c1CCCNC[C@H](C)Nc1cc-3ccc1C(N)=O)CC(C)(C)CC2=O` registered a solubility in [3] greater than 100 µg/mL.
In the case of `Cc1c2c(n3c1CCCNC(=O)[C@@H](C)Nc1cc-3ccc1C(N)=O)CC(C)(C)CC2=O`, the results for the IC50 (in [1]; on Heat shock protein HSP90) were 268 nM and 123 nM, respectively. Further, in the data set on HCT-116, the EC50 turned out to be 175 nM.
Consider `Cc1c2c(n3c1CCCN[C@H](C)CNc1cc-3ccc1C(N)=O)CC(C)(C)CC2=O`, for which the IC50 in data set [1] amounted to 91 nM; on Heat shock protein HSP90, 47 nM. Also, the EC50 with HCT-116 amounted to 43 nM. For the same molecule, the half-life in data set [2] is greater than 30 min. In data set [3], this molecule yielded a solubility greater than 100 µg/mL.
For `Cc1c2c(n3c1CCN(C(=O)[C@@H](C)N)CC[C@H](C)Nc1cc-3ccc1C(N)=O)CC(C)(C)CC2=O`, in [1], the IC50 was 119 nM. Moreover, the solubility in data set [3] was greater than 100 µg/mL.
Turning to `Cc1c2c(n3c1CC(=O)N(C(C)C)CC[C@H](C)Nc1cc-3ccc1C(N)=O)CC(C)(C)CC2=O`, the IC50 in data set [1] stood at 608 nM; on Heat shock protein HSP90, 278 nM. In the data set on HCT-116, this molecule had an EC50 of 865 nM. Moreover, the half-life in data set [2] was found to be 12 min. The same molecule yielded a solubility in data set [3] greater than 100 µg/mL.
On to `Cc1c2c(n3c1CC(=O)N(C)CC[C@H](C)Nc1cc-3ccc1C(N)=O)CC(C)(C)CC2=O`, for which the IC50 in [1] was determined as 156 nM; on Heat shock protein HSP90, 160 nM. In the data set with HCT-116, the EC50 came out at 247 nM. Further, the half-life in data set [2] was greater than 30 min. Also, the solubility in [3] is greater than 100 µg/mL.
For `CC(=O)N1CCCc2c(C)c3c(n2-c2ccc(C(N)=O)c(c2)N[C@@H](C)C1)CC(C)(C)CC3=O` the same measures were 219 nM, 111 nM, 194 nM, 11 min and 69 µg/mL (≈ 153 µM).
On to `Cc1c2c(n3c1CCCNC(=O)[C@H](C)Nc1cc-3ccc1C(N)=O)CC(C)(C)CC2=O`, for which the 50% inhibitory concentration (IC50) in [1] turned out to be 82 nM; against Heat shock protein HSP90, 79 nM; with A-375, 23 nM; in the data set on BT-474 it was 23 nM; in [4], 92 nM; in the data set with A549, 23 nM. Besides, the IC50 came to 111 nM in the data set on MDA-MB-361; 45 nM in the data set on DU-145; 42 nM with T98G; 80 nM in data set [5]; 22 nM in the data set on KB; 49 nM in [6]. The IC50 in [7] is greater than 1000 nM; in the data set on NCI-H1975 it was 47 nM. In data set [2], the half-life is greater than 30 min. In [3], this molecule showed a solubility greater than 100 µg/mL. Moreover, the concentration at 6 h in data set [8] was found to be 146 ng/mL; in [9], 2130 ng/g. Moreover, the concentration at 24 h in [10] came to 8 ng/mL; in data set [11], 1270 ng/g.
Turning to `Cc1c2c(n3c1CCN(C(=O)CCN)CC[C@H](C)Nc1cc-3ccc1C(N)=O)CC(C)(C)CC2=O`, the figures for the IC50 (in [1]; against Heat shock protein HSP90) were 200 nM and 6183 nM, respectively. The molecule also showed an EC50 with HCT-116 of 4890 nM. This molecule also returned a half-life in data set [2] greater than 30 min. Also, the solubility in data set [3] was greater than 100 µg/mL.
With `Cc1c2c(n3c1CC(=O)N(CCN(C)C)CC[C@H](C)Nc1cc-3ccc1C(N)=O)CC(C)(C)CC2=O`, the results for the IC50 (in data set [1]; on Heat shock protein HSP90) were 191 nM and 249 nM, respectively. In addition, a half-maximal effect with HCT-116 (EC50) was put at 330 nM. The molecule also showed a half-life in [2] greater than 30 min. Further, the solubility in [3] is greater than 100 µg/mL.
On the same counts, the results for `CC(=O)NCCN1CCCc2c(C)c3c(n2-c2ccc(C(N)=O)c(c2)N[C@@H](C)C1=O)CC(C)(C)CC3=O` are 240 nM, 15771 nM, 17900 nM, greater than 30 min and greater than 100 µg/mL.
Take `Cc1c2c(n3c1CCN(C(=O)CN)CC[C@H](C)Nc1cc-3ccc1C(N)=O)CC(C)(C)CC2=O`: the concentration for half-maximal inhibition (IC50) is 90 nM in [1] and 917 nM on Heat shock protein HSP90. In the data set on HCT-116, the EC50 turned out to be 1010 nM.
Take `Cc1c2c(n3c1CCCNC(=O)C[C@H](C)Nc1cc-3ccc1C(N)=O)CC(C)(C)CC2=O`: the IC50 amounted to 337 nM in [1] and 1842 nM at Heat shock protein HSP90. The molecule also registered an EC50 with HCT-116 of 3330 nM.
Take `Cc1c2c(n3c1CC(=O)NCC[C@H](C)Nc1cc-3ccc1C(N)=O)CC(C)(C)CC2=O`: the IC50 in [1] came out at 214 nM; at Heat shock protein HSP90, 522 nM. In the data set with HCT-116, the EC50 came out at 815 nM. Besides, the half-life in data set [2] is greater than 30 min. Further, in [3], the solubility is greater than 100 µg/mL.
Consider `CC(=O)N1CCc2c(C)c3c(n2-c2ccc(C(N)=O)c(c2)N[C@@H](C)CC1)CC(C)(C)CC3=O`, for which the IC50 is 111 nM in data set [1] and 108 nM against Heat shock protein HSP90.
Turning to `COCCN1CC[C@H](C)Nc2cc(ccc2C(N)=O)-n2c(c(C)c3c2CC(C)(C)CC3=O)CC1=O`, the figures for the IC50 (in [1]; at Heat shock protein HSP90) were 222 nM and 108 nM, respectively. This molecule returned an EC50 with HCT-116 of 359 nM. For the same molecule, in [2], the half-life was greater than 30 min. The molecule further returned a solubility in [3] greater than 100 µg/mL.
In the case of `Cc1c2c(n3c1CCCN(C(=O)CN(C)C)[C@H](C)CNc1cc-3ccc1C(N)=O)CC(C)(C)CC2=O`, the IC50 (in [1]; at Heat shock protein HSP90) was greater than 5000 nM in each case. The same molecule gave an EC50 with HCT-116 of 3260 nM. Moreover, the half-life in [2] is greater than 30 min. Besides, the solubility in [3] was greater than 100 µg/mL.
`Cc1c2c(n3c1CCCN(C)C(=O)[C@H](C)Nc1cc-3ccc1C(N)=O)CC(C)(C)CC2=O`: the IC50 on Heat shock protein HSP90 was found to be 60 nM. The molecule also returned an EC50 in the data set with HCT-116 of 80 nM. The molecule further showed a half-life in [2] greater than 30 min. In data set [3], this molecule showed a solubility of 34 µg/mL (≈ 77.9 µM).
`Cc1c2c(n3c1CCN(C(=O)[C@H](C)N)CC[C@H](C)Nc1cc-3ccc1C(N)=O)CC(C)(C)CC2=O` returned a solubility in data set [3] greater than 100 µg/mL.
As for `CC(=O)N1CCCc2c(C)c3c(n2-c2ccc(C(N)=O)c(c2)NC[C@H]1C)CC(C)(C)CC3=O`, the IC50 in data set [1] came out at 953 nM; on Heat shock protein HSP90, 1159 nM. The EC50 with HCT-116 amounted to 1900 nM. The same molecule yielded a half-life in data set [2] of 12 min. The solubility in data set [3] was greater than 100 µg/mL.
As for `CC(=O)NCC(=O)N1CCc2c(C)c3c(n2-c2ccc(C(N)=O)c(c2)N[C@@H](C)CC1)CC(C)(C)CC3=O`, the IC50 in data set [1] was found to be 140 nM; against Heat shock protein HSP90 it was 674 nM. The same molecule showed an EC50 with HCT-116 of 1550 nM. The same molecule gave a half-life in [2] greater than 30 min. The same molecule registered a solubility in data set [3] of 5 µg/mL (≈ 9.85 µM).
For the molecule `Cc1c2c(n3c1CCCN(C(=O)[C@@H](C)N)[C@H](C)CNc1cc-3ccc1C(N)=O)CC(C)(C)CC2=O`, the figures for the IC50 (in data set [1]; on Heat shock protein HSP90) were 555 nM and greater than 5000 nM, respectively. Moreover, the EC50 in the data set with HCT-116 is greater than 5000 nM. This molecule also registered a half-life in data set [2] greater than 30 min. Moreover, the solubility in data set [3] is greater than 100 µg/mL.

As usually defined, the IC50 is the midpoint of a concentration-inhibition curve. What is called EC50 is the concentration needed to bring the measured effect to its halfway point. A higher EC50 goes with a less potent agent. What is called half-life is the time needed for the level to fall by half in the phase considered. A higher half-life goes with slow decline. Broadly, the solubility is the dissolved amount per volume that the medium holds. A low value points to a poorly soluble substance.
